Laboratory results published in US20070088033A1, “Diaryl Substituted Pyridinones” (priority 2002, published 2007).
“And” between values parts separate entries of the source, which are not always exact repeats. Equal entries are not always repeated.

Each compound was assayed against T1, human p38 kinase alpha (Homo sapiens, UniProt Q16539) (assay: p38 kinase in vitro assay). Conditions: Table I; average of n trials, n=1 if not reported; read-out: p38 Alpha IC50.
T1 construct: The coding region of the human p38 cDNA was obtained by PCR-amplification from RNA isolated from the human monocyte cell line THP.1; GST (N); made in house; host or cells: E. coli DH10B
Format: biochemical
Procedure: The ability of compounds to inhibit human p38 kinase alpha was evaluated using two in vitro assay methods. In the first method, activated human p38 kinase alpha phosphorylates a biotinylated substrate, PHAS-I (phosphorylated heat and acid stable protein-insulin inducible), in the presence of gamma ^32p-ATP (^32P-ATP). PHAS-I was biotinylated prior to the assay and provides a means of capturing the substrate, which is phosphorylated during the assay. p38 Kinase was activated by MKK6. Compounds were tested in 10 fold serial dilutions over the range of 100 μM to 0,001 μM using 1% DMSO. Each concentration of inhibitor was tested in triplicate.
All reactions were carried out in 96 well polypropylene plates. Each reaction well contained 25 mM HEPES pH 7.5, 10 mM magnesium acetate and 50 μM unlabeled ATP. […] Activated human p38 kinase alpha was used at 1 μg per 50 μl reaction volume representing a final concentration of 0.3 μM. Gamma ^32P-ATP was used to follow the phosphorylation of PHAS-I. ^32P-ATP has a specific activity of 3000 Ci/mmol and was used at 1.2 μCi per 50 μl reaction volume. The reaction proceeded either for one hour or overnight at 30° C.
Following incubation, 20 μl of reaction mixture was transferred to a high capacity streptavidin coated filter plate (SAM-streptavidin-matrix, Promega) prewetted with phosphate buffered saline, The transferred reaction mix was allowed to contact the streptavidin membrane of the Promega plate for 1-2 minutes. […] Filter plates were air-dried and 20 μl of scintillant was added. The plates were sealed and counted.
A second assay format was also employed that is based on p38 kinase alpha induced phosphorylation of EGFRP (epidermal growth factor receptor peptide, a 21 mer) in the presence ^33P-ATP. Compounds were tested in 10 fold serial dilutions over the range of 100 μM to 0.001 μM in 1% DMSO. Each concentration of inhibitor was tested in triplicate. Compounds were evaluated in 50 μl reaction volumes in the presence of 25 mM Hepes pH 7.5, 10 mM magnesium acetate, 4% glycerol, 0.4% bovine serum albumin, 0.4 mM DTT, 50 μM unlabeled ATP, 25 μg EGFRP (200 μM), and 0.05 μCi ^33p-ATP. Reactions were initiated by addition of 0.09 μg of activated, purified human GST-p38 kinase alpha. Activation was carried out using GST-MKK6 (5:1,p38:MKK6) for one hour at 30° C. in the presence of 50 μM ATP. Following incubation for 60 minutes at room temperature, the reaction was stopped by addition of 150 μl of AG 1×8 resin in 900 mM sodium formate buffer, pH 3.0 (1 volume resin to 2 volumes buffer). The mixture was mixed three times with pipetting and the resin was allowed to settle. A total of 50 μl of clarified solution head volume was transferred from the reaction wells to Microlite-2 plates. 150 μl of Microscint 40 was then added to each well of the Microlite plate, and the plate was sealed, mixed, and counted.

T1 sequence (Q16539 whole entry): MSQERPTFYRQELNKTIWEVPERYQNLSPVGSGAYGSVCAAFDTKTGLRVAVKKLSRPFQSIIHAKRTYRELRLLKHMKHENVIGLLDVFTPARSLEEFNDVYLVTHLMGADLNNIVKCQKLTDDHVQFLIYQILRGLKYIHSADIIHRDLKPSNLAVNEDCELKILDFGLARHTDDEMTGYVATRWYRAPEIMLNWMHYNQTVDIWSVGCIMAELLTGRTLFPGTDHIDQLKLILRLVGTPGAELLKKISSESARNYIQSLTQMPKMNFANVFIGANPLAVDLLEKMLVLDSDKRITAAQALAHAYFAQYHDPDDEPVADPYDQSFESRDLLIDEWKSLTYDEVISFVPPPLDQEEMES

Row | Structure (SMILES) | IC50
1 | Cc1cc(OCc2ccccc2)c(Br)c(=O)n1Cc1ccccc1 [K] | 219 nM
2 | O=C(O)c1ccc(Cn2ccc(OCc3ccccc3)c(Br)c2=O)cc1 [T] | 423 nM
3 | Cc1cc(OCc2ccc(F)cc2)c(Br)c(=O)n1-c1c(Cl)cccc1Cl [P] | 403 nM
4 | O=c1c(Cl)c(OCc2ccccc2)ccn1Cc1ccccc1 [X] | 450 nM
5 | Cc1cccc(C)c1-n1c(C)cc(OCc2ccc(F)cc2)c(Br)c1=O [V] | 455 nM
6 | O=c1c(Br)c(OCc2ccc(F)cc2F)ccn1Cc1ccccc1F [M] | 360 nM
7 | COc1cccc(Cn2ccc(OCc3ccc(F)cc3F)c(Br)c2=O)c1 [Example S] | 498 nM
8 | Cc1cc(OCc2ccc(F)cc2F)c(Br)c(=O)n1-c1c(Cl)cccc1Cl [G] | 179 nM
9 | O=c1c(Br)c(OCc2ccc(F)cc2)ccn1Cc1ccncc1 [EE] | 572 nM
10 | O=c1c(Br)c(OCc2ccc(F)cc2F)ccn1Cc1ccc(F)cc1F [JJ] | 850 nM
11 | O=c1c(Br)c(OCc2ccc(F)cc2)ccn1Cc1ccc(F)cc1 [B] | 403 nM
12 | O=c1c(Br)c(OCc2ccc(F)cc2)ccn1Cc1cccc(F)c1 [BB] | 632 nM
13 | O=c1c(I)c(OCc2ccc(F)cc2)ccn1Cc1cccc(F)c1 [HH] | 746 nM
14 | Cc1cc(OCc2ccc(F)cc2F)c(Br)c(=O)n1Cc1cccnc1 [F] | 132 nM
15 | COc1cccc(C)c1-n1c(C)cc(OCc2ccc(F)cc2F)c(Br)c1=O [L] | 294 nM
16 | N/C(=N/O)c1ccc(Cn2ccc(OCc3ccccc3)c(Br)c2=O)cc1 [Y] | 489 nM
17 | N#Cc1ccc(Cn2ccc(OCc3ccc(F)cc3)c(Br)c2=O)cc1 [GG] | 785 nM
18 | Cc1cc(OCc2ccccc2)c(Br)c(=O)n1-c1c(Cl)cccc1Cl [DD] | 554 nM

Results, then the compound that gave them:

Row | IC50 | Structure (SMILES)
19 | 427 nM | O=c1c(Br)c(OCc2ccccc2)ccn1Cc1ccccc1F [U]
20 | 581 nM | O=c1c(Br)c(OCc2ccccc2)ccn1Cc1ccc(Br)cc1 [FF]
21 | 873 nM | O=c1c(Br)c(OCc2ccc(F)cc2)ccn1Cc1cccnc1 [II]
22 | 536 nM | N#Cc1ccc(Cn2ccc(OCc3ccccc3)c(Br)c2=O)cc1 [CC]
23 | 210 nM | Cc1cc(OCc2ccc(F)cc2F)c(Br)c(=O)n1Cc1ccncc1 [I]
24 | 691 nM | O=c1c(Br)c(OCc2cccc(Cl)c2)ccn1Cc1cccc(F)c1 [AA]
25 | 129 nM | O=c1c(Br)c(OCc2ccc(F)cc2F)ccn1Cc1cccc(F)c1 [E]
26 | 170 nM | O=c1c(Br)c(OCc2ccccc2)ccn1Cc1ccc(F)cc1 [D]
27 | 507 nM | COC(=O)c1ccc(Cn2ccc(OCc3ccccc3)c(Br)c2=O)cc1 [Z]
28 | 260 nM | Cc1cccc(COc2ccn(Cc3cccc(F)c3)c(=O)c2Br)c1 [H]
29 | 398 nM | O=c1c(Br)c(OCc2ccccc2)ccn1Cc1ccc(Cl)cc1 [R]

Same assay, conditions: Table II; several values in a cell = repeat determinations; read-out: p38A

Row | Structure (SMILES) | IC50
30 | CCn1ccc(OCc2ccccc2)c(Br)c1=O [AAA] | 1990 nM
31 | Cn1ccc(OCc2ccccc2)c(Br)c1=O [EEE] | 11500 nM
32 | O=c1c(Br)c(OCc2c(Cl)cccc2Cl)ccn1Cc1ccccc1 [VV] | 14300 nM
33 | O=c1cc(OCc2ccccc2)ccn1Cc1ccc(Cl)cc1 [GGGG] | 31900 nM
34 | O=c1c(Br)c(OCc2ccc(F)cc2)ccn1Cc1ccc(F)cc1 [SS] | 1250 nM and 921 nM
35 | O=c1c(Br)c(OCc2ccccc2)ccn1CCc1ccsc1 [QQQ] | 3310 nM
36 | O=c1c(Br)c(OCc2ccccc2)ccn1CC1CCNCC1 [III] | 90900 nM
37 | O=c1c(Br)c(OCc2ccc(Cl)cc2)ccn1CCSc1ccccc1 [RRR] | 56500 nM
38 | O=c1c(Br)c(OCc2ccccc2)ccn1CCc1cccs1 [YYY] | 2230 nM
39 | O=c1cc(OCc2ccccc2Cl)ccn1Cc1ccccc1 [WWW] | 81800 nM
40 | O=c1cc(OCc2cccc(Cl)c2)ccn1Cc1ccccc1 [XXX] | 51500 nM
41 | O=c1c(Br)c(OCc2ccc(Cl)cc2)ccn1Cc1ccc(F)cc1 [PP] | 1900 nM
42 | O=c1c(Br)c(OCc2ccccc2)ccn1Cc1ccc(OCc2ccccc2)cc1 [TT] | 1450 nM
43 | O=c1c(Br)c(OCc2ccccc2)ccn1Cc1ccc(C(F)(F)F)cc1 [MMM] | 1530 nM
44 | O=c1c(Br)c(SCc2ccccc2)ccn1Cc1ccccc1 [BBBB] | 3600 nM
45 | O=c1c(Br)c(OCc2ccc(Cl)cc2)ccn1Cc1ccc(Cl)cc1 [OO] | 2460 nM
46 | O=c1cc(OCc2ccccc2)ccn1Cc1ccccc1F [FFFF] | 33800 nM
47 | Cc1cc(OCc2ccccc2)cc(=O)n1Cc1ccccc1 [OOOO] | 38700 nM
48 | O=c1c(CO)c(OCc2ccccc2)ccn1Cc1ccccc1 [NNN] | 24900 nM
49 | Cc1cc(OCc2ccccc2)c(Br)c(=O)n1Cc1ccccc1 [XX] | 219 nM

Other lines, results leading:

Row | IC50 | Structure (SMILES)
50 | 7990 nM and 3460 nM | Cc1c(OCc2ccccc2)ccn(Cc2ccccc2)c1=O [JJJ]
51 | 6630 nM | O=c1c(Br)c(OCc2ccc(Cl)cc2)ccn1CCc1ccccc1 [DDD]
52 | 1140 nM | O=c1c(Br)c(OCc2ccc(F)cc2)ccn1Cc1cccc(Cl)c1 [UU]
53 | 1380 nM | O=c1c(Br)c(OCc2ccc(Cl)cc2)ccn1Cc1ccccc1 [MM]
54 | 9860 nM | O=c1c(Br)c(OCc2ccccc2)ccn1Cc1cccc(C(F)(F)F)c1 [SSS]
55 | 2030 nM | O=c1c(Br)c(OCc2ccccc2Cl)ccn1Cc1ccccc1 [NN]
56 | 13200 nM | Cn1ccc(OCc2ccccc2)c(Br)c1=O [GGG]
57 | 18000 nM | O=c1c(Br)c(OCc2ccc(F)cc2)ccn1CCCc1ccccc1 [HHH]
58 | 2510 nM | O=c1c(Br)c(OCc2ccccc2)ccn1Cc1ccc(OC(F)(F)F)cc1 [DDDD]
59 | 3670 nM | CC(C)(C)c1ccc(Cn2ccc(OCc3ccccc3)c(Br)c2=O)cc1 [ZZ]

Same assay, conditions: Table III; n = number of times assayed, n=1 if not reported; read-out: p38 Alpha IC50

Row | Structure (SMILES) | IC50
60 | Cc1cc(OCc2cccc(Cl)c2)c(Br)c(=O)n1Cc1ccccc1 [OOOOO] | 1600 nM
61 | Cc1cc(OCc2c(F)cc(F)cc2F)c(Br)c(=O)n1Cc1ccncc1 [UUUU] | 192 nM
62 | O=c1c(Br)c(OCc2ccccc2CO)ccn1Cc1cccc(F)c1 [CCCCC] | 663 nM
63 | Cc1cccc(C)c1-n1c(C)cc(OCc2c(F)cccc2F)c(Br)c1=O [QQQQ] | 199 nM
64 | Cc1cc(OCc2ccc(F)cc2F)c(Br)c(=O)n1Cc1cccnc1 [RRRR] | 132 nM
65 | COc1ccc(Cn2ccc(OCc3ccc(F)cc3)c(Br)c2=O)cc1 [GGGGG] | 1040 nM
66 | Cc1cccc(C)c1-n1c(C)cc(OCc2c(F)cc(F)cc2F)c(Br)c1=O [PPPP] | 97 nM
67 | O=c1c(Br)c(NCc2ccccc2)ccn1Cc1cccc(F)c1 [HHHHH] | 1180 nM
68 | O=c1c(Br)c(OCc2ccc(F)cc2F)ccn1Cc1ccncc1 [SSSS] | 141 nM
69 | O=c1c(Br)c(OCc2ccccc2)ccn1Cc1ccc(F)nc1 [RRRRR] | 1850 nM
70 | Cc1cc(OCc2c(F)cccc2F)c(Br)c(=O)n1-c1c(Cl)cccc1Cl [YYYY] | 339 nM
71 | NCc1cccc(Cn2ccc(OCc3ccc(F)cc3)c(Br)c2=O)c1 [TTTT] | 175 nM
72 | O=c1c(Br)c(OCc2ccccc2)ccn1Cc1ccc(C(F)(F)F)cc1 [MMMMM] | 1530 nM
73 | O=c1c(Br)c(OCc2ccccc2)ccn1Cc1ccc(OCc2ccccc2)cc1 [KKKKK] | 1450 nM
74 | O=c1c(Br)c(OCc2ccc(F)cc2)ccn1Cc1cccc(Cl)c1 [IIIII] | 1140 nM
75 | CCn1ccc(OCc2ccccc2)c(Br)c1=O [SSSSS] | 1990 nM

The next lines start with the values.

Row | IC50 | Structure (SMILES)
76 | 260 nM | Cc1cccc(COc2ccn(Cc3cccc(F)c3)c(=O)c2Br)c1 [WWWW]
77 | 1710 nM | Cc1cc(CCc2ccccc2)c(Br)c(=O)n1Cc1cccc(F)c1 [LLLLL]
78 | 1550 nM | O=c1c(Br)c(OCc2ccc(F)cc2)ccn1CC1CC1 [JJJJJ]
79 | 455 nM | Cc1cccc(C)c1-n1ccc(OCc2ccc(F)cc2)c(Br)c1=O [BBBBB]
80 | 1690 nM | Cc1ccccc1COc1ccn(Cc2cccc(F)c2)c(=O)c1Br [NNNNN]
81 | 684 nM | Cc1cc(OCc2c(F)cccc2F)c(Br)c(=O)n1Cc1ccncc1 [EEEEE]
82 | 183 nM | Cc1cc(OCc2ccc(F)cc2F)c(Br)c(=O)n1Cc1ccncc1 [VVVV]
83 | 691 nM | O=c1c(Br)c(OCc2cccc(Cl)c2)ccn1Cc1cccc(F)c1 [DDDDD]
84 | 1080 nM | O=c1c(Cl)c(OCc2ccc(F)cc2)ccn1Cc1ccc(F)cc1 [FFFFF]
85 | 1760 nM | O=c1c(I)c(OCc2ccccc2)ccn1Cc1cccc(F)c1 [PPPPP]
